Test results taken from patent US12384800B2, “Antitumoral compounds” (priority 2017, dated 2025).

What was measured:
Test in all cases: cells
[1] = tested on: A549 cells (lung carcinoma, NSCLC); conditions: A549, SRB; for GI50: 72 hours treatment; for TGI: total cell growth inhibition; for TGI / CC50: 72 hours; for CC50: read-out: LC50, 50% net cell killing
Description: (§1) The aim of this assay is to evaluate the in vitro cytostatic (ability to delay or arrest tumor cell growth) or cytotoxic (ability to kill tumor cells) activity of the samples being tested.
(§2) A colorimetric assay, using sulforhodamine B (SRB) reaction has been adapted to provide a quantitative measurement of cell growth and viability (following the technique described by Skehan et al. J. Natl. Cancer Inst. 1990, 82, 1107-1112). Another colorimetric assay based on 3-(4,5-Dimethylthiazol-2-yl)-2,5-diphenyltetrazolium bromide (MTT) reduction to a purple formazan has been also used to assess the antiproliferative activity (following the technique described by Mosmann et al. J. Immunol. Meth. 1983, 65, 55-63).
(§3) These forms of assays employ 96-well cell culture microplates following the standards of the American National Standards Institute and the Society for Laboratory Automation and Screening (ANSI SLAS 1-2004 (R2012) Oct. 12, 2011. All the cell lines used in this study were obtained from the American Type Culture Collection (ATCC) and derive from different types of human cancer.
(§4) A549, HT29, MDA-MB-231 and PSN1 cells were maintained in Dulbecco's Modified Eagle Medium (DMEM) while PC-3 and 22Rv1 cells were maintained in Roswell Park Memorial Institute Medium (RPMI). All cell lines were supplemented with 10% Fetal Bovine Serum (FBS), 2 mM L-glutamine, 100 U/mL penicillin, and 100 […] at 37° C., 5% CO2 and 98% humidity. For the experiments, cells were harvested from subconfluent cultures using trypsinization and resuspended in fresh medium before counting and plating.
(§5) A549, HT29, MDA-MB-231 and PSN1 cells were seeded in 96 well microtiter plates, at 5000 cells per well in aliquots of 150 μL, and allowed to attach to the plate surface for 18 hours (overnight) in drug free medium. After that, one control (untreated) plate of each cell line was fixed (as described below) and used for time zero reference value. Culture plates were then treated with test compounds (50 μL aliquots of 4× stock solutions in complete culture medium plus 4% DMSO) using ten ⅖ serial dilutions (concentrations ranging from 10 to 0.003 μg/mL) and triplicate cultures (1% final concentration in DMSO). After 72 hours treatment, the antitumor effect was measured by using the SRB methodology: Briefly, cells were washed twice with PBS, fixed for 15 min in 1% glutaraldehyde solution at room temperature, rinsed twice in PBS, and stained in 0.4% SRB solution for 30 min at room temperature. Cells were then rinsed several times with 1% acetic acid solution and air-dried at room temperature.
(§6) Effects on cell growth and survival were estimated by applying the NCI algorithm (Boyd M R and Paull K D. Drug Dev. Res. 1995, 34, 91-104). The values obtained in triplicate cultures were fitted by nonlinear regression to a four-parameters logistic curve by nonlinear regression analysis.

[2] = tested on: HT29 cells (colorectal adenocarcinoma); conditions: HT29, SRB; for GI50: 72 hours treatment; for TGI: total cell growth inhibition; for TGI / CC50: 72 hours; for CC50: read-out: LC50, 50% net cell killing
Description: as §1, §2, §3, §4, §5, §6

[3] = tested on: MDA-MB-231 cells (breast adenocarcinoma); conditions: for TGI: total cell growth inhibition; for TGI / CC50: 72 hours; for CC50: read-out: LC50, 50% net cell killing
Description: as §1, §2, §3, §4, §5, §6

[4] = tested on: PSN1 cells (pancreas adenocarcinoma); conditions: PSN1, SRB; for GI50: 72 hours treatment; for TGI: total cell growth inhibition; for TGI / CC50: 72 hours; for CC50: read-out: LC50, 50% net cell killing
Description: as §1, §2, §3, §4, §5, §6

[5] = MDA-MB-231, 72 hours treatment, SRB

## COc1c(C)cc2c(c1O)[C@@H]1[C@@H]3[C@@H]4SC[C@]5(N[C@H](CO)Cc6c5oc5ccccc65)C(=O)OC[C@@H](c5c6c(c(C)c(OC(C)=O)c54)OCO6)N3[C@@H](C#N)[C@H](C2)N1C [Compound 38-S]
[1]
  GI50: 8.05 nM
  TGI: 8.55E−09 Molar
  CC50: 9.44 nM
[2]
  GI50: 4.53 nM
  TGI: 7.05E−09 Molar
  CC50: > 126 nM
[3]; [5]
  GI50: 2.52 nM
[3]; MDA-MB-231, SRB
  TGI: 4.28E−09 Molar
  CC50: 7.8 nM
[4]
  GI50: 5.03 nM
  TGI: 8.18E−09 Molar
  CC50: 15.1 nM

## COc1c(C)cc2c(c1O)[C@@H]1[C@@H]3[C@@H]4SC[C@]5(N[C@@H](C)Cc6c5[nH]c5ccccc65)C(=O)OC[C@@H](c5c6c(c(C)c(OC(C)=O)c54)OCO6)N3[C@@H](C#N)[C@H](C2)N1C [B, reference compound]
[1]
  GI50: 20.6 nM
  TGI: 2.19E−08 Molar
  CC50: > 129 nM
[2]
  GI50: 8.48 nM
  TGI: 9.13E−09 Molar
  CC50: > 129 nM
[3]; [5]
  GI50: 9 nM
[3]; MDA-MB-231, SRB
  TGI: 1.67E−08 Molar
  CC50: 34.7 nM
[4]
  GI50: 19.3 nM
  TGI: 2.06E−08 Molar
  CC50: 23.1 nM

## COc1ccc2[nH]c3c(c2c1)C[C@@H](CO)N[C@]31CS[C@@H]2c3c(OC(C)=O)c(C)c4c(c3[C@H](COC1=O)N1[C@@H]2[C@H]2c3c(cc(C)c(OC)c3O)C[C@@H]([C@@H]1C#N)N2C)OCO4 [Compound 18-S]
[1]
  GI50: 1.7 nM
  TGI: 3.03E−09 Molar
[2]
  TGI: 1.34E−09 Molar
[3]; MDA-MB-231, SRB
  TGI: 1.34E−09 Molar
  CC50: 1.58 nM
[4]
  GI50: 0.959 nM
  TGI: 1.34E−09 Molar

## COc1c(C)cc2c(c1O)[C@@H]1[C@@H]3[C@@H]4SC[C@]5(N[C@@H](CO)Cc6c5oc5ccccc65)C(=O)OC[C@@H](c5c6c(c(C)c(OC(C)=O)c54)OCO6)N3[C@@H](C#N)[C@H](C2)N1C [Compound 38-R]
[1]
  GI50: 0.654 nM
  TGI: 1.04E−09 Molar
  CC50: > 126 nM
[2]
  GI50: 0.541 nM
  TGI: 5.91E−10 Molar
  CC50: > 126 nM
[3]; [5]
  GI50: 0.453 nM
[3]; MDA-MB-231, SRB
  TGI: 8.43E−10 Molar
  CC50: 2.01 nM
[4]
  GI50: 0.654 nM
  TGI: 9.94E−10 Molar
  CC50: 1.76 nM

## COc1c(C)cc2c(c1O)[C@@H]1[C@@H]3[C@@H]4SC[C@]5(N[C@H](C(=O)O)Cc6c5[nH]c5ccccc65)C(=O)OC[C@@H](c5c6c(c(C)c(OC(C)=O)c54)OCO6)N3[C@@H](C#N)[C@H](C2)N1C [Compound 14-S, reference compound]
[1]
  GI50: > 124 nM
  TGI: >1.24E−07 Molar
  CC50: > 124 nM
[2]
  GI50: 121 nM
  TGI: >1.24E−07 Molar
  CC50: > 124 nM
[3]; [5]
  GI50: 54.5 nM
[3]; MDA-MB-231, SRB
  TGI: 1.13E−07 Molar
  CC50: > 124 nM
[4]
  GI50: > 124 nM
  TGI: >1.24E−07 Molar
  CC50: > 124 nM

## COc1c(C)cc2c(c1O)[C@@H]1[C@@H]3[C@@H]4SC[C@]5(N[C@H](COC(C)=O)Cc6c5[nH]c5ccccc65)C(=O)OC[C@@H](c5c6c(c(C)c(OC(C)=O)c54)OCO6)N3[C@@H](C#N)[C@H](C2)N1C [Compound 3a-S]
[1]
  GI50: 3.11 nM
  TGI: 3.23E−09 Molar
  CC50: > 120 nM
[2]
  GI50: 2.99 nM
  TGI: 3.23E−09 Molar
  CC50: > 120 nM
[3]; [5]
  GI50: 2.87 nM
[3]; MDA-MB-231, SRB
  TGI: 3.59E−09 Molar
  CC50: 4.9 nM
[4]
  GI50: 2.15 nM
  TGI: 3.59E−09 Molar
  CC50: 12 nM

## COc1ccc2[nH]c3c(c2c1)C[C@H](C(=O)O)N[C@]31CS[C@@H]2c3c(OC(C)=O)c(C)c4c(c3[C@H](COC1=O)N1[C@@H]2[C@H]2c3c(cc(C)c(OC)c3O)C[C@@H]([C@@H]1C#N)N2C)OCO4 [Compound 28-R, reference compound]
[1]
  GI50: 167 nM
  TGI: 3.58E−07 Molar
  CC50: > 1190 nM
[2]
  GI50: 31 nM
  TGI: 3.34E−08 Molar
  CC50: > 1190 nM
[3]; [5]
  GI50: 19.1 nM
[3]; MDA-MB-231, SRB
  TGI: 3.22E−08 Molar
  CC50: 91.9 nM
[4]
  GI50: 21.5 nM
  TGI: 3.58E−08 Molar
  CC50: 66.8 nM

## COc1c(C)cc2c(c1O)[C@@H]1[C@@H]3[C@@H]4SC[C@]5(NCCc6c5oc5ccccc65)C(=O)OC[C@@H](c5c6c(c(C)c(OC(C)=O)c54)OCO6)N3[C@@H](C#N)[C@H](C2)N1C [Compound 31]
[1]
  GI50: 19.6 nM
  TGI: 2.09E−08 Molar
  CC50: 23.5 nM
[2]
  GI50: 10.5 nM
  TGI: 1.57E−08 Molar
  CC50: > 131 nM
[3]; [5]
  GI50: 8.89 nM
[3]; MDA-MB-231, SRB
  TGI: 1.70E−08 Molar
  CC50: 35.3 nM
[4]
  GI50: 6.8 nM
  TGI: 1.57E−08 Molar
  CC50: 43.1 nM

## COc1c(C)cc2c(c1O)[C@@H]1[C@@H]3[C@@H]4SC[C@]5(N[C@@H](CO)Cc6c5[nH]c5ccccc65)C(=O)OC[C@@H](c5c6c(c(C)c(OC(C)=O)c54)OCO6)N3[C@@H](C#N)[C@H](C2)N1C [Compound 3-R]
[1]
  GI50: 403 nM
  TGI: 5.79E−10 Molar
  CC50: > 126 nM
[2]
  TGI: >1.26E−07 Molar
  CC50: > 126 nM
[3]; MDA-MB-231, SRB
  TGI: 5.04E−10 Molar
  CC50: 1.25 nM
[4]
  GI50: 0.39 nM
  TGI: 6.05E−10 Molar
  CC50: > 126 nM

## COc1ccc2[nH]c3c(c2c1)C[C@H](CO)N[C@]31CS[C@@H]2c3c(OC(C)=O)c(C)c4c(c3[C@H](COC1=O)N1[C@@H]2[C@H]2c3c(cc(C)c(OC)c3O)C[C@@H]([C@@H]1C#N)N2C)OCO4 [Compound 18-R]
[1]
  TGI: 1.34E−09 Molar
[2]
  TGI: 1.34E−09 Molar
[3]; MDA-MB-231, SRB
  TGI: 1.34E−09 Molar
  CC50: 1.46 nM
[4]
  GI50: 0.57 nM
  TGI: 1.06E−09 Molar

## COc1ccc2[nH]c3c(c2c1)C[C@@H](CN)N[C@]31CS[C@@H]2c3c(OC(C)=O)c(C)c4c(c3[C@H](COC1=O)N1[C@@H]2[C@H]2c3c(cc(C)c(OC)c3O)C[C@@H]([C@@H]1C#N)N2C)OCO4 [Compound 26-S]
[1]
  GI50: 11.2 nM
  TGI: 2.19E−08 Molar
  CC50: > 122 nM
[2]
  GI50: 2.79 nM
  TGI: 3.16E−09 Molar
  CC50: > 122 nM
[3]; [5]
  GI50: 1.34 nM
[3]; MDA-MB-231, SRB
  TGI: 1.94E−09 Molar
  CC50: 3.89 nM
[4]
  GI50: 3.04 nM
  TGI: 3.28E−09 Molar
  CC50: 3.52 nM

## C=CCOC(=O)NC[C@@H]1Cc2c(oc3ccccc23)[C@@]2(CS[C@@H]3c4c(OC(C)=O)c(C)c5c(c4[C@H](COC2=O)N2[C@@H]3[C@H]3c4c(cc(C)c(OC)c4O)C[C@@H]([C@@H]2C#N)N3C)OCO5)N1 [Compound 45-S]
[3]; Homo sapiens, MDA-MB-231, 72 h
  GI50: 11.7 nM

## COc1c(C)cc2c(c1O)[C@@H]1[C@@H]3[C@@H]4SC[C@]5(N[C@@H](CN)Cc6c5[nH]c5ccccc65)C(=O)OC[C@@H](c5c6c(c(C)c(OC(C)=O)c54)OCO6)N3[C@@H](C#N)[C@H](C2)N1C [Compound 11-R]
[1]
  GI50: 1.77 nM
  TGI: 4.54E−09 Molar
  CC50: > 126 nM
[2]
  GI50: 1.39 nM
  TGI: >1.26E−07 Molar
  CC50: > 126 nM
[4]
  GI50: 1.39 nM
  TGI: 1.89E−09 Molar
  CC50: > 126 nM

## COc1c(C)cc2c(c1O)[C@@H]1[C@@H]3[C@@H]4SC[C@]5(N[C@H](CN)Cc6c5[nH]c5ccccc65)C(=O)OC[C@@H](c5c6c(c(C)c(OC(C)=O)c54)OCO6)N3[C@@H](C#N)[C@H](C2)N1C [Compound 11-S]
[1]
  CC50: > 126 nM
[2]
  TGI: >1.26E−07 Molar
  CC50: > 126 nM

## C=CCOC(=O)NC[C@H]1Cc2c([nH]c3ccccc23)[C@@]2(CS[C@@H]3c4c(OC(C)=O)c(C)c5c(c4[C@H](COC2=O)N2[C@@H]3[C@H]3c4c(cc(C)c(OC)c4O)C[C@@H]([C@@H]2C#N)N3C)OCO5)N1 [Compound 10-R]
[2]
  TGI: >1.14E−07 Molar
  CC50: > 114 nM
